Test results as given in PubChem BioAssay (NCI).
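Briefly, cells in 96-well plates were exposed to five compound concentrations for 48 h, and endpoints were estimated by linear interpolation. At the TGI there is no net growth.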

Key:
Experiment in all cases: growth of human tumour cells (NCI), 48 h
MALME-3M melanoma = test system: MALME-3M melanoma
TK-10 renal = test system: TK-10 renal
MDA-MB-435 = test system: MDA-MB-435
MDA-N = test system: MDA-N
ACHN renal = test system: ACHN renal
SW-620 colon = test system: SW-620 colon
SK-MEL-2 melanoma = test system: SK-MEL-2 melanoma
SF-539 CNS = test system: SF-539 CNS
UACC-257 melanoma = test system: UACC-257 melanoma
MDA-MB-231 breast = test system: MDA-MB-231 breast
NCI-H460 lung = test system: NCI-H460 lung
KM12 colon = test system: KM12 colon
HOP-62 NSCLC = test system: HOP-62 NSCLC
A498 renal = test system: A498 renal
K-562 leukemia = test system: K-562 leukemia
LOX IMVI melanoma = test system: LOX IMVI melanoma
UACC-62 melanoma = test system: UACC-62 melanoma
SK-MEL-5 melanoma = test system: SK-MEL-5 melanoma
RXF 393 renal = test system: RXF 393 renal
PC-3 prostate = test system: PC-3 prostate
HT29 colon = test system: HT29 colon
A549 NSCLC = test system: A549 NSCLC
SK-MEL-28 melanoma = test system: SK-MEL-28 melanoma
M14 melanoma = test system: M14 melanoma
MOLT-4 leukemia = test system: MOLT-4 leukemia
BT-549 breast = test system: BT-549 breast
HCT-116 colon = test system: HCT-116 colon
SF-268 CNS = test system: SF-268 CNS
SNB-75 CNS = test system: SNB-75 CNS
SR leukemia = test system: SR leukemia
RPMI-8226 leukemia = test system: RPMI-8226 leukemia
SF-295 CNS = test system: SF-295 CNS
EKVX NSCLC = test system: EKVX NSCLC
HS 578T breast = test system: HS 578T breast
786-0 renal = test system: 786-0 renal
OVCAR-3 ovarian = test system: OVCAR-3 ovarian
IGROV1 ovarian = test system: IGROV1 ovarian
T-47D breast = test system: T-47D breast
SN12C renal = test system: SN12C renal
HOP-92 NSCLC = test system: HOP-92 NSCLC
OVCAR-5 ovarian = test system: OVCAR-5 ovarian
OVCAR-4 ovarian = test system: OVCAR-4 ovarian
U251 CNS = test system: U251 CNS
NCI-H522 lung = test system: NCI-H522 lung
NCI-H23 lung = test system: NCI-H23 lung
NCI-H226 lung = test system: NCI-H226 lung
SK-OV-3 ovarian = test system: SK-OV-3 ovarian
UO-31 renal = test system: UO-31 renal
CAKI-1 renal = test system: CAKI-1 renal
HCT-15 colon = test system: HCT-15 colon
HL-60(TB) leukemia = test system: HL-60(TB) leukemia
MCF7 breast = test system: MCF7 breast
OVCAR-8 ovarian = test system: OVCAR-8 ovarian
HCC-2998 colon = test system: HCC-2998 colon
NCI/ADR-RES ovarian = test system: NCI/ADR-RES ovarian

Measured: TGI

CC(=O)c1ccc(NC(=O)/C(CC(=O)/C=C/c2ccccc2)=N/NC(N)=S)cc1
> 100 µM: MALME-3M melanoma | TK-10 renal | MDA-MB-435 | MDA-N | ACHN renal | SW-620 colon | SK-MEL-2 melanoma | SF-539 CNS | UACC-257 melanoma | MDA-MB-231 breast | NCI-H460 lung | KM12 colon | HOP-62 NSCLC | A498 renal | K-562 leukemia | LOX IMVI melanoma | UACC-62 melanoma | SK-MEL-5 melanoma | RXF 393 renal | PC-3 prostate | HT29 colon | A549 NSCLC | SK-MEL-28 melanoma | M14 melanoma | MOLT-4 leukemia | BT-549 breast | HCT-116 colon | SF-268 CNS | SNB-75 CNS | SR leukemia | RPMI-8226 leukemia | SF-295 CNS | EKVX NSCLC | HS 578T breast | 786-0 renal | OVCAR-3 ovarian | IGROV1 ovarian | T-47D breast | SN12C renal | HOP-92 NSCLC | OVCAR-5 ovarian | OVCAR-4 ovarian | U251 CNS | NCI-H522 lung | NCI-H23 lung | NCI-H226 lung | SK-OV-3 ovarian | UO-31 renal | CAKI-1 renal | HCT-15 colon | HL-60(TB) leukemia | MCF7 breast | OVCAR-8 ovarian | HCC-2998 colon | NCI/ADR-RES ovarian
